The record followed here is the NIST ThermoML archive (doi:10.1016/j.fluid.2007.07.065).

The conditions of the data set: Crystal; Heating/Cooling curves.

± gives the expanded uncertainty stated by the source.

With `CC(=O)O` [acetic acid], the Normal melting temperature came out at 16.69 ± 0.1 °C. For `CCC(=O)O` [propanoic acid] the value was -20.61 ± 0.1 °C. With `NC=O` [formamide], the Normal melting temperature was determined as 2.39 ± 0.1 °C.
